The source of these data is patent US20180369244A1, “BTK Inhibitors to Treat Solid Tumors Through Modulation of the Tumor Microenvironment” (Acerta Pharma B.V., priority 2014, published 2018).

In data set [1] the test system is ID8 ovarian cancer. Description: ID8 syngeneic orthotropic ovarian cancer murine model. The format is in vivo, mice. The following applies: 15 mg/kg/BID oral. From the text:
Human ovarian cancer models, including the ID8 syngeneic orthotropic ovarian cancer model and other animal models, are described in Fong and Kakar, J. Ovarian Res. 2009, 2, 12; Greenaway, et al., Gynecol. Oncol. 2008, 108, 385-94; Urzua et al., Tumour Biol. 2005, 26, 236-44; Janat-Amsbury, et al., Anticancer Res. 2006, 26, 3223-28; Janat-Amsbury, et al., Anticancer Res. 2006, 26, 2785-89. […] The results of the study are shown in FIG. 5, FIG. 6, FIG. 7, FIG. 8, FIG. 9, FIG. 10, FIG. 11, and FIG. 12.

For data set [2], the system named is KPC derived mouse pancreatic cancer cells. Description: KPC derived pancreatic cancer cells injected into pancreas, Formula (II) and/or gemcitabine. As to conditions: Formula (II) 15 mg/kg/BID oral; gemcitabine 15 mg/kg IV every 4 days for 3 injections. The format is in vivo. Here is the method: In this study, KPC derived mouse pancreatic cancer cells (KrasGl2D;Trp53R^172H;Pdx1-Cre) were injected into the pancreases.
Single cell suspensions from tumor samples. Mouse tumor tissue was collected and stored in PBS/0.1% soybean trypsin inhibitor prior to enzymatic dissociation. Samples were finely minced with a scissors and mouse tissue was transferred into DMEM containing 1.0 mg/ml collagenase IV (Gibco), 0.1% soybean trypsin inhibitor, and 50 U/ml DNase (Roche) and incubated at 37 C for 30 min. with constant stirring while human tissue was digested in 2.0 mg/ml collagenase IV, 1.0 mg/ml hyluronidase, 0.1% soybean trypsin inhibitor, and 50 U/ml DNase for 45 minutes. Suspensions were filtered through a 100 micron filter and washed with FACS buffer (PBS/0.5% BSA/2.0 mM EDTA) prior to staining. Two million total cells were stained with antibodies as indicated. Intracellular detection of FoxP3 was achieved following permeabilization with BD Perm Buffer III (BD Biosciences) and eBioscience Fix/Perm respectively. Following surface staining, samples were acquired on a BD Fortessa and analyzed using FlowJo (Treestar) software.

In data set [3] the test system is NK cells. Description: Antibody-dependent NK cell IFN-γ secretion (ELISA). It is filed as cell-based, human. As to conditions: 1 μM. A general note: An ELISA detects its analyte on a solid surface through an enzyme-linked reagent.
Experimental: The HER18 cells were maintained in DEM supplemented with fetal bovine serum, penicillin-streptomycin and. Prior to assay, HER18 cells were harvested using trypsin-EDTA, washed with phosphate-buffered saline (PBS) containing 5% serum and viable cells were counted. […] NK cells from CLL patients and healthy volunteers were enriched from peripheral blood collected in sodium citrate anti-coagulant tubes and then subject to density centrifugation. Removal of non NK cells was performed using negative selection by MACS separation. Freshly isolated NK cells were washed three times, enumerated, and then used immediately for ADCC assays.
Cytokine secretion was determined as follows. Rituximab and trastuzumab-dependent NK-cell mediated degranulation and cytokine release were assessed using lymphoma and HER2+ breast cancer cell lines (DHL-4 and HER18, respectively). […] NK cells from healthy donors were enriched as described above and then added to the target cells and incubated for 4 hours at 37° C. Triplicate cultures were performed on NK cells from donors. After incubation, supernatants were harvested, centrifuged briefly, and then analyzed for interferon-γ using an enzyme-linked immunosorbent assay (ELISA).
Data set [4] deals with Raji cells. Description: Rituximab ADCC chromium release assay. The format is cell-based, human. The following applies: 1 μM. The source says:
Cell culture conditions were as follows. […] The HER18 cells were maintained in DEM supplemented with fetal bovine serum, penicillin-streptomycin and. Prior to assay, HER18 cells were harvested using trypsin-EDTA, washed with phosphate-buffered saline (PBS) containing 5% serum and viable cells were counted. For culture of primary target cells, peripheral blood from CLL patients was subject to density centrifugation to obtain peripheral blood mononuclear cells (PBMC). Cell preparations were washed and then subject to positive selection of CD5+CD19^+ CLL cells using magnetic beads (MACS, Miltenyi Biotech). Cell preparations were used fresh after selection. NK cells from CLL patients and healthy volunteers were enriched from peripheral blood collected in sodium citrate anti-coagulant tubes and then subject to density centrifugation. Removal of non NK cells was performed using negative selection by MACS separation. Freshly isolated NK cells were washed three times, enumerated, and then used immediately for ADCC assays.
ADCC assays were performed as follows. Briefly, target cells (Raji or primary CLL) were labeled by incubation at 37° C. with 100 μCi ^51Cr for 4 hours prior to co-culture with NK cells. Cells were washed, enumerated, and then added in triplicate to prepared 96-well plates containing treated NK cells at an effector:target (E:T) ratio of 25:1. […] The effect of NK cell natural cytotoxicity was assessed in wells containing no rituximab. Cultures were incubated at 37° C. for 4 hours, and then centrifuged. Supernatants were harvested and ^51Cr release was measured by liquid scintillation counting. All experiments were performed in triplicate.

For data set [5], the system named is primary CLL cells. Description: Rituximab ADCC chromium release assay. It is filed as cell-based, human. As to conditions: 1 μM; primary CLL samples. Here is the method:
Cell culture conditions were as follows. Cell lines Raji and DHL-4 were maintained in […] supplemented with fetal bovine serum, L-glutamine, 2-mercaptoethanol and penicillin-streptomycin at 37° C. in a humidified incubator. The HER18 cells were maintained in DEM supplemented with fetal bovine serum, penicillin-streptomycin and. Prior to assay, HER18 cells were harvested using trypsin-EDTA, washed with phosphate-buffered saline (PBS) containing 5% serum and viable cells were counted. For culture of primary target cells, peripheral blood from CLL patients was subject to density centrifugation to obtain peripheral blood mononuclear cells (PBMC). Cell preparations were washed and then subject to positive selection of CD5+CD19^+ CLL cells using magnetic beads (MACS, Miltenyi Biotech). Cell preparations were used fresh after selection. NK cells from CLL patients and healthy volunteers were enriched from peripheral blood collected in sodium citrate anti-coagulant tubes and then subject to density centrifugation. Removal of non NK cells was performed using negative selection by MACS separation. […]
ADCC assays were performed as follows. […] The effect of NK cell natural cytotoxicity was assessed in wells containing no rituximab. […] Supernatants were harvested and ^51Cr release was measured by liquid scintillation counting. […]

For data set [6], the system named is EGFR. Description: EGF-induced EGFR phosphorylation in A431 cells (phosphoflow). The format is cell-based, human. As to the method:
Phosphoflow cytometry was performed with p-EGFR (Y1069). MFI values were normalized so that 100% represents the p-EGFR level in stimulated cells without inhibitor, while 0% represents the unstimulated/no drug condition.

Data set [7] relates to CD8+ T cells. Description: CD8+ T cell viability. The format is cell-based. The following applies: 4 days culture. Here is the method:
Total T cells were plated on anti-TCR and anti-CD28 coated wells in the presence of both BTK inhibitors. Neutral culture conditions were used that will not polarize T cells to a helper lineage. The cells are grown for 4 days and are then stained with anti-CD4, anti-CD8 and LIVE/DEAD reagent to determine if the drugs have selective effects on either the CD4^+ or CD8^+ cells. Statistical significance was calculated using the Mann Whitney T-test. […]

Usually inhibition stands for the drop in the measured response relative to a control, in per cent. On to `CC#CC(=O)N1CCC[C@H]1c1nc(-c2ccc(C(=O)Nc3ccccn3)cc2)c2c(N)nccn12` [Formula (II), (S)-4-(8-amino-3-(1-(but-2-ynoyl)pyrrolidin-2-yl)imidazo[1,5-a]pyrazin-1-yl)-N-(pyridin-2-yl)benzamide], for which, in data set [1], the “ID8 ovarian cancer growth” value was “impairs ID8 ovarian cancer growth”; the “immunosuppressive B cells in tumor-bearing mice” value is “significant reduction in immunosuppressive B cells”; the “tumor associated Tregs and CD8+ T cells” value was “significant reduction in immunosuppressive tumor associated Tregs and an increase in CD8^+ T cells”. In addition, in data set [2], the “reduction in tumor size” value is “show efficacy alone”. In addition, the “IFN-γ or NK cell degranulation” value in data set [3] is “did not inhibit”. Also, the “inhibition of trastuzumab-stimulated NK cell cytokine release” value in data set [3] (HER18 target cells) is on record as “no inhibitory effect”. In data set [4] (FIG. 31), the “rituximab ADCC, NK cell activity” value is given as “not inhibited”. In addition, the “antibody-dependent lysis of rituximab-coated Raji cells” value in data set [4] (healthy donor NK cells) is on record as “not inhibited”. Further, the “ex vivo NK cell activity against autologous tumor cells” value in data set [5] is recorded as “not inhibited”. Also, the “inhibition of in vitro EGFR phosphorylation” value in data set [6] (10 μM) was “no inhibition”. Besides, the inhibition at 10 µM in data set [6] (Homo sapiens, A-431, read-out: EGF-induced p-EGFR inhibition) was determined as 7%. Moreover, the “CD8+ T cell viability” value in data set [7] is “not observed”.
